Patent US12577238B2, “Compositions and methods for modulating inflammatory and degenerative disorder” (University of Southern California, priority 2018, dated 2026)
Entries after “also recorded” stand apart in the source; their conditions may differ.

T1: gp130 (Homo sapiens, UniProt P40189)
T1 construct: endogenous in cells; host or cells: adult human articular chondrocytes (three donors)
T1 sequence (P40189 23-918): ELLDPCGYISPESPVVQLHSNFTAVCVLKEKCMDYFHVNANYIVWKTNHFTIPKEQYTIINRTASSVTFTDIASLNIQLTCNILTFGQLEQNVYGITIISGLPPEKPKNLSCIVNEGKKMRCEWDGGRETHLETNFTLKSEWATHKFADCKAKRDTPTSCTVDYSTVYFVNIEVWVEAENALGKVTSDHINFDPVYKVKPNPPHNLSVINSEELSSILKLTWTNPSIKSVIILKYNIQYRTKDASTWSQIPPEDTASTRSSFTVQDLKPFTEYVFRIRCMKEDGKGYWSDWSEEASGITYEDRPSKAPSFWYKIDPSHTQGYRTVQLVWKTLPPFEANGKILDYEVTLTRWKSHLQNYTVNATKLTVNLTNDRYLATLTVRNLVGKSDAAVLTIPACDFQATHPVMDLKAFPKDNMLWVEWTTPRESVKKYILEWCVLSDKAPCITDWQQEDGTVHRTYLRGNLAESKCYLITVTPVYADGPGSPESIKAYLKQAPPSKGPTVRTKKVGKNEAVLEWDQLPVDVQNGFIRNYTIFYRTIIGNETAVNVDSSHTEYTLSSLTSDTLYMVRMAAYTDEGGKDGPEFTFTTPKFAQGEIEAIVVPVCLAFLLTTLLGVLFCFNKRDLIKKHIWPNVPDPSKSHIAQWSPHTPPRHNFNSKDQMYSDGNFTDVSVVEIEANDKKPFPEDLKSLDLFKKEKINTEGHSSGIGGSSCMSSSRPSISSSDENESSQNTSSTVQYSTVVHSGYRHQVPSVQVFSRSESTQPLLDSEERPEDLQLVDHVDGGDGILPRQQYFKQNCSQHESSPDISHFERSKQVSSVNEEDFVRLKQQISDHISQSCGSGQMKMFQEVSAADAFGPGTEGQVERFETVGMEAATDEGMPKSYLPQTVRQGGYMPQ

T2: gp130 (Rattus norvegicus, UniProt P40190)
T2 construct: from tissue; host or cells: rat knee joint in vivo (Sprague-Dawley wild-type in the CFA model)
T2 sequence (P40190 23-918): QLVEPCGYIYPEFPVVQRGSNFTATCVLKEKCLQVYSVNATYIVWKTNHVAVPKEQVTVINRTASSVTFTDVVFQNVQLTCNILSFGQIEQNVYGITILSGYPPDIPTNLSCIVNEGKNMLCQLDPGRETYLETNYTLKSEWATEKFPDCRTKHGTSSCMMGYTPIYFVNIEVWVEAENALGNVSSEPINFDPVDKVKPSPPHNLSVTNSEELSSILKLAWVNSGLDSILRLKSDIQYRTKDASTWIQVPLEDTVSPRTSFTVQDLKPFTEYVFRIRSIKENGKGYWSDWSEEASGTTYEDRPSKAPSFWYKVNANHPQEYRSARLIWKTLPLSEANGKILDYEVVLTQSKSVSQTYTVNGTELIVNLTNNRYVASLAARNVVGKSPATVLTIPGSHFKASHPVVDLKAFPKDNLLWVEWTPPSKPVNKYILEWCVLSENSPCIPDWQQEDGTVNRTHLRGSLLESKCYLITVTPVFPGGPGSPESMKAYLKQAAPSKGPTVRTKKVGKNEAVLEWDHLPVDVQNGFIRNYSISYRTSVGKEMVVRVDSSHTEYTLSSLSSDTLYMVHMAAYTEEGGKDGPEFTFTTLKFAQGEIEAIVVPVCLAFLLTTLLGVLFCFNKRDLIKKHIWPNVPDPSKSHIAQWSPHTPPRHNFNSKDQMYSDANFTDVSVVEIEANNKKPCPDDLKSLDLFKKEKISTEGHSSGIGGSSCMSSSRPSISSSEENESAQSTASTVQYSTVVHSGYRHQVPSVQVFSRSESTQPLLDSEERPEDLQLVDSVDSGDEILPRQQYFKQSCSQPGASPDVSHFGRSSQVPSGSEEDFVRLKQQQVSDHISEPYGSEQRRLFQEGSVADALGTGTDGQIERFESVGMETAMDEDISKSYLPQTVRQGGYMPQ


Key:
gp130 [1] = target: T1, gp130; assay: OSM-mediated activation of gp130 in adult human articular chondrocytes; format: cell-based; settings: three independent donors
Excerpt: 423F is the positive control drug. Adult human articular chondrocytes from three independent donors were used to generate the results.
Adult human articular chondrocytes from three independent donors were used to generate the results.
Adult human articular chondrocytes from three independent donors were used.

[2] = system: adult pig articular chondrocytes; assay: Western blot of signaling proteins (pSTAT3, MYC, MAPK, AKT, NF-κB) in pig articular chondrocytes; format: cell-based; settings: for levels of active STAT3 (pSTAT3) and MYC proteins: Western blot, analogs at 10 μM; for activation of the MAPK, AKT and NF-κB pathways: adult pig articular chondrocytes
Description: (A) Class 1 molecules (marked by red arrows) activate STAT3 and MYC signaling pathways wile Class 2 molecules (blue arrows) have no stimulatory effects on STAT3 and MYC signaling in chondrocytes as determined by western blot analysis. (B) Structures of the most prominent Class 1 and Class 2 molecules. […] All drugs were tested at 10 μM and assessed using Western Blot.
All drugs tested at 10 μM and assessed using Western Blot.
(§1) To begin to address the mechanism of action of RCGD 423, adult pig chondrocytes were incubated with the drug, IL-6 family cytokines or the pro-catabolic cytokines TNF-α and IL-1β and measured levels of various proteins downstream of these cytokines that are known to drive catabolic responses (FIG. 3).
(§2) Firstly, RCGD 423 was a hit from a library; this made the depth of the discovery surrounding the technology less comprehensive. Additionally, the physical properties of RCGD 423 (solubility, potency, functional groups) could be improved. Significant gains in these areas could potentially result in a first-in-class injectable for the treatment of post-traumatic OA. Moreover, the potential risks associated with promoting MYC stabilization and proliferation in gp130^+ cells as well as large increases in active STAT3 protein was of concern. […] These compounds were then screened in adult pig articular chondrocytes and cartilage explants, seeking compounds that could inhibit the catabolic effects of OSM but not drive increases in MYC and pSTAT3 protein levels. […] Together, these preliminary data identify CX-011 (B8) as a highly anti-inflammatory, anti-catabolic alternative to RCGD 423, with increased “drug-like” properties and reduced potential molecular liabilities.

[3] = system: pig articular cartilage explants; assay: Matrix degradation assay, OSM-driven, pig articular cartilage explants; format: cell-based; settings: driven by OSM
Description: FIG. 22A-C show matrix degradation assays.
72 hour exposure to the drug and OSM. […] Effect is concentration dependent and increases with increase in drug concentration.
as §2

[4] = system: adult pig articular chondrocytes; assay: Proteins mediating pro-inflammatory signals with or without OSM; format: cell-based
Excerpt: as §2

ADAMTS4/5 and MMP13 = assay: qPCR for proteolytic enzymes in adult pig chondrocytes; format: cell-based
Description: as §1

gp130 [5] = target: T2, gp130; assay: Injection into rat knees, pSTAT3 and MYC levels; format: in vivo; settings: co-injection with RCGD 423 into rat knees
Description: Based on this, it was hypothesized that RCGD 423 acts through gp130 by promoting stable homodimers in the absence of ligand. To confirm that RCGD 423 acts through gp130, the gp130 null cell line Ba/F3 cells was used. Ba/F3 cells were transfected with either full-length gp130 or a mutant gp130 lacking domain 2 (ΔD2), which contains the predicted binding site for RCGD 423 (FIG. 7). […] To verify the specificity of RCGD 423 in vivo, the compound was injected into rat knees in the presence of the small molecule gp130 inhibitor SC144 or a blocking antibody specific for domain 2 of gp130. […] The ability of RCGD 423 to act via inducing formation of gp130 homodimers was then examined by expressing tagged versions of gp130 in 293T cells. In this system, only homodimeric complexes can contain both tagged versions of gp130 (FIG. 9).

MMP13 and ADAMTS4 = assay: OSM-induced MMP13 and ADAMTS4 levels; format: cell-based

Row | Molecule | OSM-mediated activation of gp130 (gp130 [1]) | levels of active STAT3 (pSTAT3) and MYC proteins [2] | breakdown of collagen and aggrecan (aggrecan-neo, collagen-neo epitopes) [3] | further results
1 | Cc1ccccc1-c1csc(NC(=O)c2ccno2)n1 [B815] | inhibit OSM-mediated activation of gp130; also recorded: inhibit OSM-mediate d activation of gp130 |  |  | 
2 | Cc1ccc(-c2csc(NC(=O)c3ccno3)n2)cc1 [B8] | inhibit OSM-mediated activation of gp130 |  |  | levels of active STAT3 (pSTAT3) and MYC proteins ([2]; listed as CX-011): do not affect levels of pSTAT3 or MYC protein; levels of active STAT3 (pSTAT3) and MYC proteins ([2]; listed as CX-011 (B8)): did not increase levels of pSTAT3 and MYC; breakdown of collagen and aggrecan (aggrecan-neo, collagen-neo epitopes) ([3]; listed as CX-011): prevents the breakdown of collagen and aggrecan; increase in catalytic enzymes / induction of proteolytic gene expression ([3]; listed as CX-011): prevents; breakdown of collagen and aggrecan (aggrecan-neo, collagen-neo epitopes) ([3]; listed as CX-011 (B8)): almost completely blocked the generation of aggrecan and collagen neoepitopes; increase in catalytic enzymes / induction of proteolytic gene expression ([3]; listed as CX-011 (B8)): reduced the induction of proteolytic gene expression; increases in proteins mediating pro-inflammatory signals ([4]; in the presence of OSM): strongly inhibits increases in these proteins in the presence of OSM; endogenous levels of proteins mediating pro-inflammatory signals ([4]; without OSM): little effect
3 | Cc1ccc(-c2cccc(NC(=O)c3ccno3)n2)cc1 [B810] |  | pSTAT3 and MYC activating | can also strongly prevent the breakdown of collagent and aggrecan | 
4 | Cc1ccc(-c2csc(NC(=O)c3cnco3)n2)cc1 [B803] | inhibit OSM-mediated activation of gp130; also recorded: inhibit OSM-mediate d activation of gp130 |  |  | 
5 | Cc1ccc(-c2cccc(NC(=O)c3ccccn3)n2)cc1 [B839] |  |  | strongly prevent the breakdown of collagen and aggrecan | 
6 | LIF: leukemia inhibitory factor, IL-6 family cytokine |  | increased levels of active STAT3 and MYC proteins |  | expression of proteolytic enzymes ADAMTS4/5 and MMP13 (ADAMTS4/5 and MMP13): significant increases in the expression of these genes; activation of the MAPK, AKT and NF-κB pathways [2]: activated the MAPK, AKT and NF-κB pathways
7 | Cc1ccc(-c2nc(NC(=O)c3ccccn3)cs2)cc1 [B843] |  |  | can still strongly prevent the breakdown of collagen and aggrecan | 
8 | O=C(NNc1nc2cc(F)ccc2n2cccc12)c1cnccn1 [SC144] |  |  |  | blockade of signaling downstream of RCGD 423 (gp130 [5]): completely inhibited signaling downstream of RCGD 423; also recorded: could be blocked by co-injection
9 | Cc1ccc(-c2csc(NC(=O)c3oncc3C)n2)cc1 [B840] |  | pSTAT3 and MYC activating | can also strongly prevent the breakdown of collagent and aggrecan | 
10 | IL-6: IL-6 family cytokine |  | increased levels of active STAT3 and MYC proteins |  | expression of proteolytic enzymes ADAMTS4/5 and MMP13 (ADAMTS4/5 and MMP13): significant increases in the expression of these genes; activation of the MAPK, AKT and NF-κB pathways [2]: activated the MAPK, AKT and NF-κB pathways
11 | O=C(Nc1nc(C2CC2)cs1)c1ccno1 [B826] | strongly inhibits OSM-mediated activation of gp130 |  | can still strongly prevent the breakdown of collagen and aggrecan | 
12 | Cc1ccccc1-c1cccc(NC(=O)c2ccno2)n1 [B849] |  |  | can still strongly prevent the breakdown of collagen and aggrecan | 
13 | OSM: pro-inflammatory cytokine oncostatin M (protein, UniProt P13725 26-221, looked up) Oncostatin-M: AAIGSCSKEYRVLLGQLQKQTDLMQDTSRLLDPYIRIQGLDVPKLREHCRERPGAFPSEETLRGLGRRGFLQTLNATLGCVLHRLADLEQRLPKAQDLERSGLNIEDLEKLQMARPNILGLRNNIYCMAQLLDNSDTAEPTKAGRGASQPPTPTPASDAFQRKLEGCRFLHGYHRFMHSVGRVFSKWGESPNRSRR |  |  |  | levels of MMP13 and ADAMTS4 (degradation of cartilage matrix proteins) (MMP13 and ADAMTS4): upregulates levels of MMP13 and ADAMTS proteases
